Results reported in the supplement of paper PMC10307832.

Tests used:
Assay in all cases: relative viability (nuclei count vs DMSO), 5 days (fraction); higher = more cells survive
NCI-H2009 = test system: NCI-H2009
Method in brief: (§1)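 Lung cancer cell lines were pin-tool dosed in 1536-well plates on the day after seeding, with either a lone drug or a fixed anchor-drug dose plus five library-drug doses (not always all listed) in √10 steps. Nuclei were counted on 4× images after 5 days. Relative viability is the ratio of treated-well to vehicle-well nuclei counts, with each value a median of duplicate plates.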

HCC-366 = test system: HCC-366
Method in brief: as §1

NCI-H661 = test system: NCI-H661
Method in brief: as §1

EKVX = test system: EKVX
Method in brief: as §1

NCI-H2405 = test system: NCI-H2405
Method in brief: as §1

SK-MES-1 = test system: SK-MES-1
Method in brief: as §1

HCC-44 = test system: HCC-44
Method in brief: as §1

BEN = test system: BEN
Method in brief: as §1

SK-LU-1 = test system: SK-LU-1
Method in brief: as §1

LC-2-ad = test system: LC-2-ad
Method in brief: as §1

NCI-H2170 = test system: NCI-H2170
Method in brief: as §1

NCI-H1792 = test system: NCI-H1792
Method in brief: as §1

NCI-H596 = test system: NCI-H596
Method in brief: as §1

HARA = test system: HARA
Method in brief: as §1

LOU-NH91 = test system: LOU-NH91
Method in brief: as §1

NCI-H2087 = test system: NCI-H2087
Method in brief: as §1

NCI-H1734 = test system: NCI-H1734
Method in brief: as §1

NCI-H2228 = test system: NCI-H2228
Method in brief: as §1

NCI-H647 = test system: NCI-H647
Method in brief: as §1

NCI-H1355 = test system: NCI-H1355
Method in brief: as §1

HCC-827 = test system: HCC-827
Method in brief: as §1

NCI-H1395 = test system: NCI-H1395
Method in brief: as §1

NCI-H1437 = test system: NCI-H1437
Method in brief: as §1

SMILES: C[C@@H]1CN(CC(=O)Nc2ccc3c(c2)Cc2cccc(-c4cc(=O)cc(N5CCOCC5)o4)c2S3)C[C@H](C)O1 + Cc1nc(NC(=O)N2CCC[C@H]2C(N)=O)sc1-c1ccnc(C(C)(C)C(F)(F)F)c1 [Alpelisib] (partner 2 µM)
- relative viability (NCI-H2009; first compound 0.04 µM): 1.23
- relative viability (NCI-H2009; first compound 0.1265 µM): 1.09
- relative viability (NCI-H2009; first compound 0.4 µM): 1.09
- relative viability (NCI-H2009; first compound 4 µM): 0.974
- relative viability (HCC-366; first compound 0.04 µM): 0.379
- relative viability (HCC-366; first compound 0.1265 µM): 0.414
- relative viability (HCC-366; first compound 0.4 µM): 0.315
- relative viability (HCC-366; first compound 4 µM): 0.368
- relative viability (NCI-H661; first compound 0.1265 µM): 0.741
- relative viability (NCI-H661; first compound 0.4 µM): 0.526
- relative viability (NCI-H661; first compound 4 µM): 0.489
- relative viability (EKVX; first compound 0.04 µM): 0.737
- relative viability (EKVX; first compound 0.1265 µM): 0.818
- relative viability (EKVX; first compound 0.4 µM): 0.818
- relative viability (EKVX; first compound 4 µM): 0.732
- relative viability (NCI-H2405; first compound 0.04 µM): 0.899
- relative viability (NCI-H2405; first compound 0.1265 µM): 0.818
- relative viability (NCI-H2405; first compound 0.4 µM): 0.769
- relative viability (NCI-H2405; first compound 4 µM): 0.698
- relative viability (SK-MES-1; first compound 0.04 µM): 0.927
- relative viability (SK-MES-1; first compound 0.1265 µM): 0.826
- relative viability (SK-MES-1; first compound 0.4 µM): 1.02
- relative viability (SK-MES-1; first compound 4 µM): 0.813
- relative viability (HCC-44; first compound 0.04 µM): 0.774
- relative viability (HCC-44; first compound 0.1265 µM): 0.744
- relative viability (HCC-44; first compound 0.4 µM): 0.615
- relative viability (HCC-44; first compound 4 µM): 0.582
- relative viability (BEN; first compound 0.04 µM): 1
- relative viability (BEN; first compound 0.1265 µM): 0.968
- relative viability (BEN; first compound 0.4 µM): 1.03
- relative viability (BEN; first compound 4 µM): 1.04
- relative viability (SK-LU-1; first compound 0.04 µM): 1.21
- relative viability (SK-LU-1; first compound 0.1265 µM): 1.05
- relative viability (SK-LU-1; first compound 0.4 µM): 0.936
- relative viability (SK-LU-1; first compound 4 µM): 0.645
- relative viability (LC-2-ad; first compound 0.04 µM): 1.02
- relative viability (LC-2-ad; first compound 0.1265 µM): 0.864
- relative viability (LC-2-ad; first compound 0.4 µM): 0.77
- relative viability (LC-2-ad; first compound 4 µM): 0.848
- relative viability (NCI-H2170; first compound 0.1265 µM): 0.761
- relative viability (NCI-H2170; first compound 0.4 µM): 0.727
- relative viability (NCI-H2170; first compound 4 µM): 0.751
- relative viability (NCI-H1792; first compound 0.04 µM): 0.685
- relative viability (NCI-H1792; first compound 0.1265 µM): 0.677
- relative viability (NCI-H1792; first compound 0.4 µM): 0.707
- relative viability (NCI-H1792; first compound 4 µM): 0.665
- relative viability (NCI-H596; first compound 0.04 µM): 0.513
- relative viability (NCI-H596; first compound 0.1265 µM): 0.451
- relative viability (NCI-H596; first compound 0.4 µM): 0.384
- relative viability (NCI-H596; first compound 4 µM): 0.428
- relative viability (HARA; first compound 0.04 µM): 0.81
- relative viability (HARA; first compound 0.1265 µM): 0.637
- relative viability (HARA; first compound 0.4 µM): 0.711
- relative viability (HARA; first compound 4 µM): 0.78
- relative viability (LOU-NH91; first compound 0.04 µM): 0.756
- relative viability (LOU-NH91; first compound 0.1265 µM): 0.72
- relative viability (LOU-NH91; first compound 0.4 µM): 0.692
- relative viability (LOU-NH91; first compound 4 µM): 0.689
- relative viability (NCI-H2087; first compound 0.04 µM): 1.49
- relative viability (NCI-H2087; first compound 0.1265 µM): 1.2
- relative viability (NCI-H2087; first compound 0.4 µM): 1.2
- relative viability (NCI-H2087; first compound 4 µM): 0.837
- relative viability (NCI-H1734; first compound 0.04 µM): 0.759
- relative viability (NCI-H1734; first compound 0.1265 µM): 0.673
- relative viability (NCI-H1734; first compound 0.4 µM): 0.567
- relative viability (NCI-H1734; first compound 4 µM): 0.746
- relative viability (NCI-H2228; first compound 0.04 µM): 0.708
- relative viability (NCI-H2228; first compound 0.1265 µM): 0.707
- relative viability (NCI-H2228; first compound 0.4 µM): 0.754
- relative viability (NCI-H2228; first compound 4 µM): 0.485
- relative viability (NCI-H647; first compound 0.04 µM): 1.26
- relative viability (NCI-H647; first compound 0.1265 µM): 1.08
- relative viability (NCI-H647; first compound 0.4 µM): 1.08
- relative viability (NCI-H647; first compound 4 µM): 0.766
- relative viability (NCI-H1355; first compound 0.04 µM): 0.856
- relative viability (NCI-H1355; first compound 0.1265 µM): 0.759
- relative viability (NCI-H1355; first compound 0.4 µM): 0.862
- relative viability (NCI-H1355; first compound 4 µM): 0.827
- relative viability (HCC-827; first compound 0.04 µM): 1.02
- relative viability (HCC-827; first compound 0.1265 µM): 0.988
- relative viability (HCC-827; first compound 0.4 µM): 0.938
- relative viability (HCC-827; first compound 4 µM): 0.978
- relative viability (NCI-H1395; first compound 0.04 µM): 0.958
- relative viability (NCI-H1395; first compound 0.1265 µM): 1.08
- relative viability (NCI-H1395; first compound 0.4 µM): 1.05
- relative viability (NCI-H1395; first compound 4 µM): 1.08
- relative viability (NCI-H1437; first compound 0.04 µM): 1.04
- relative viability (NCI-H1437; first compound 0.1265 µM): 1.01
- relative viability (NCI-H1437; first compound 0.4 µM): 0.813
- relative viability (NCI-H1437; first compound 4 µM): 0.797
